According to PubChem BioAssay AID179 (DTP/NCI, 2004):
Activity calls are given as the source filed them.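 The calls were made as follows: active = compounds giving half or more protection of infected cells from virus-caused growth loss, again on retest; inactive = the rest.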

System: CEM cells HIV-1 protection, formazan growth assay
Assay: NCI AIDS Antiviral Assay
Conditions: for IC50: measured here: growth of uninfected CEM cells
Summary of the method: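 Category rules: moderately active means at least 50% protection on retest, and confirmed active means 100% protection reproducibly. The underlying data came from a formazan growth assay in HIV-1-infected CEM cells.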

## COc1cc(C2C(Cl)C(=O)N2NC(=O)c2ccccc2O)ccc1O (configuration not stated)
  EC50: > 27.5 µM
  IC50: > 27.5 µM

## N#Cc1c(N)c2c(c(-c3ccccc3)c1-c1ccccc1)C(=O)N(Nc1ccccc1)C2=O
  EC50: > 200 µM
  IC50: 27.5 µM

## Cn1cnc([N+](=O)[O-])c1Sc1nnc(-c2cccnc2)n1C
  EC50: > 794 µM
  IC50: 6.61 µM

## CCOC(=O)/C=C/c1ccccn1
  EC50: > 1410 µM
  IC50: 646 µM

## O=C(CCCn1cnc([N+](=O)[O-])n1)NCCCn1ccnc1[N+](=O)[O-]
  EC50: > 200 µM
  IC50: > 200 µM

## COc1cccc2cc(C)c(C(=O)c3ccccc3)nc12
  EC50: > 64.6 µM
  IC50: > 64.6 µM

## Nc1nc(Cl)cc(NCC2(CO)CCCCC2)n1
  EC50: > 200 µM
  IC50: 105 µM

## N#Cc1c(N)oc(-c2cccc([N+](=O)[O-])c2)c1C#N
  EC50: > 200 µM
  IC50: 10.7 µM

## N#CN=C(N)NC(=O)/C=C/C=C/c1ccc(Cl)cc1
  outcome: inactive

## CCC1CCN=C(Cn2cc(C)c(=O)[nH]c2=O)N1 (configuration not stated)
  EC50: > 200 µM
  IC50: > 200 µM

## CN1CCN(C)P1c1ccccc1
  EC50: > 1290 µM
  IC50: > 1290 µM

## Cc1cn(C2CC(n3ncnn3)C(CO)O2)c(=O)[nH]c1=O (configuration not stated)
  outcome: inactive

## C=CCCCC(C#N)(c1ccccc1)N(C)C (configuration not stated)
  outcome: inactive

## Cc1ccc(C)c(N2C(=O)C(=O)C(c3nc4ccccc4o3)C(=O)C2=O)c1
  outcome: inactive

## CC(=O)Nc1cnc2c(nc3cc(C)ccn32)c1C
  EC50: > 74.1 µM
  IC50: > 74.1 µM

## Cc1ccc(N(C)S(=O)(=O)c2ccccc2[N+](=O)[O-])cc1
  EC50: 10.7 µM
  IC50: 36.3 µM

## COc1ccc2c(c1)C=CC1OC(C(C)=O)(C(C)=O)C(C=O)=CN21 (configuration not stated)
  EC50: > 79.4 µM
  IC50: 38.9 µM

## CC1=CCP(C(F)(F)F)P(C(F)(F)F)C1 (configuration not stated)
  EC50: > 251 µM
  IC50: > 251 µM

## O=c1c(O)c(-c2cc(O)c(O)c(O)c2)oc2cc(O)ccc12
  EC50: > 832 µM
  IC50: 11.7 µM

## CCOC(=O)CCN1C(=O)c2ccc(NC(=O)C(=O)O)cc2S1(=O)=O
  EC50: > 200 µM
  IC50: > 200 µM

## CSC(=S)Nc1cc(C)cc(C)n1
  EC50: > 200 µM
  IC50: > 200 µM

## O=S1(=O)C(c2cccc(C(F)(F)F)c2)=C(O)c2cc3ccccc3nc21
  outcome: inactive

## N=C1/C(=C/c2ccccc2)C(=O)N=C2SC=NN12
  EC50: > 200 µM
  IC50: > 200 µM

## CC1(C)C2=CCCC(=O)[C@@]2(C)CC[C@@H]1O
  outcome: inactive

## NC(=O)n1cnc(N)n1
  EC50: > 200 µM
  IC50: > 200 µM

## O=c1[nH]cc(S)c(=O)[nH]1
  EC50: 151 µM
  IC50: > 200 µM

## O=[N+]([O-])c1ccc(Oc2ccc(S(=O)(=O)c3ccc(Oc4ccc([N+](=O)[O-])cc4)c([N+](=O)[O-])c3)cc2[N+](=O)[O-])cc1
  EC50: > 200 µM
  IC50: > 200 µM

## O=C1CCC(=O)N1C(c1ccccc1)(c1ccccc1)N1C(=O)CCC1=O
  EC50: > 200 µM
  IC50: 15.1 µM

## S=C(Nc1ccc(Cl)c(Cl)c1)N1c2ccccc2-n2cccc2C1c1cccnc1 (configuration not stated)
  EC50: > 49 µM
  IC50: 25.1 µM

## COc1ccc2cc(C(=O)O)ccc2c1OC
  EC50: > 200 µM
  IC50: > 200 µM

## Cc1cc([C@H](C#N)c2nc3ccccc3s2)nc(Cl)n1
  EC50: > 15.1 µM
  IC50: 1.05 µM

## CCc1ccc2oc(-c3cc(O)c(-c4nc5cc(CC)ccc5o4)cc3O)nc2c1
  EC50: > 200 µM
  IC50: > 200 µM

## C1CN(CCSSCCN2CCOCC2)CCO1
  EC50: > 200 µM
  IC50: 166 µM

## CC(C)CC1CC2C(=O)N(c3ccccc3)C(=O)C2c2[nH]c3ccccc3c21 (configuration not stated)
  outcome: inactive

## COC(=O)C1CC2(C)C=CC1N(C(=O)OCc1ccccc1)C2 (configuration not stated)
  EC50: 63.1 µM
  IC50: 102 µM

## C[C@@H]1C(=O)O[C@H]1[C@H](O)CO
  EC50: > 200 µM
  IC50: > 200 µM

## NCCCC[C@H](NC(=O)[C@H](CS)NC(=O)[C@@H](N)Cc1cnc[nH]1)C(=O)N[C@@H](Cc1ccc(O)cc1)C(=O)N[C@@H](Cc1c[nH]c2ccccc12)C(=O)N[C@@H](Cc1c[nH]c2ccccc12)C(N)=O
  EC50: > 200 µM
  IC50: > 200 µM

## COc1ccc(/C=C2\N=C(c3ccccc3)OC2=O)c(OCc2ccccc2)c1
  EC50: > 9.77 µM
  IC50: > 9.77 µM

## C=CCOCn1cc(C)c(=O)[nH]c1=O
  EC50: > 200 µM
  IC50: > 200 µM

## C[C@]12CCC(=O)C=C1CC[C@@H]1C2CC[C@]2(C)NC(=O)C(C#N)CC12 (some centres not stated)
  outcome: inactive

## S=c1sc(-c2ccc(Cl)cc2)nn1CSc1nc2ccccc2o1
  EC50: > 200 µM
  IC50: > 200 µM

## CC(=N/NC(=S)N1CCCCCC1)/C(C)=N\NC(=S)N1CCCCCC1
  EC50: > 100 µM
  IC50: 8.71 µM

## OC(c1ccccc1)(c1cccnc1)C(O)(c1ccccc1)c1cccnc1 (configuration not stated)
  EC50: > 200 µM
  IC50: > 200 µM

## CCOC(=O)c1ccc(Nc2nc3cc(C(F)(F)F)ccc3nc2C(=O)OCC)cc1
  EC50: > 200 µM
  IC50: 83.2 µM

## O=S(CC(O)c1ccccc1)c1ccccc1 (configuration not stated)
  EC50: > 200 µM
  IC50: 23.4 µM

## COc1c(Cl)cc(C(=CCC(=O)N[C@@H]2CC[C@@]3(C)[C@@H](CC[C@@H]4[C@@H]3CC[C@]3(C)[C@@H]([C@H](C)CCCC(C)C)CC[C@@H]43)C2)c2cc(Cl)c(OC)c(C(=O)O)c2)cc1C(=O)O
  EC50: > 200 µM
  IC50: 10.2 µM

## NC(N)=NCCCS(=O)(=O)Nc1ccc(Nc2c3ccccc3nc3cc([N+](=O)[O-])ccc23)cc1
  outcome: inactive

## C[n+]1cn(CC(=O)c2ccccc2)c(C(N)=O)c1N
  EC50: > 263 µM
  IC50: 214 µM

## COC(=O)/C(=N\NC(=S)NN)C(C(=O)OC)C(=O)C(=O)Nc1cccc(C(F)(F)F)c1 (configuration not stated)
  EC50: > 537 µM
  IC50: 240 µM

## O=C1C2=Cc3ccccc3OC2(O)Oc2cc3ccccc3cc21 (configuration not stated)
  EC50: > 200 µM
  IC50: 69.2 µM

## CC(=O)OCC1OC(N2C(=O)[C@@H](Oc3ccccc3)[C@H]2/C=C/c2ccccc2)C(OC(C)=O)C(OC(C)=O)C1OC(C)=O (some centres not stated)
  EC50: > 16.6 µM
  IC50: > 16.6 µM

## Nc1nc(Nc2ccc(Cl)c(Cl)c2)c(N=O)c(=O)[nH]1
  EC50: > 200 µM
  IC50: 3.72 µM

## O=[N+]([O-])c1ccc2nncc(N3CC3)c2c1
  outcome: inactive

## COC(=O)CCNc1c2ccccc2nc2cccc([N+](=O)[O-])c12
  EC50: > 0.2 µM
  IC50: 0.0794 µM

## CCCN1CN(C(C(=O)N[C@@H]2C(=O)N3C(C(=O)O)=C(C)CSC23)c2ccc(O)cc2)CSC1=S (some centres not stated)
  EC50: > 347 µM
  IC50: 195 µM

## CCOC(=O)CN(c1sc(C)c(CC)c1C(=O)OCC)S(=O)(=O)c1ccc(C)cc1
  EC50: > 200 µM
  IC50: 10.2 µM

## CC(C)(C)NNC(=O)CCn1[nH]c(=O)c(Cl)c(Cl)c1=O
  EC50: > 407 µM
  IC50: > 407 µM

## NC(Cc1ccccc1)c1nccs1 (configuration not stated)
  EC50: > 200 µM
  IC50: > 200 µM

## CC(=O)[O-].CC(=O)[O-].O=C(N/N=C/c1cc(Cl)cc(Cl)c1[OH2+])c1ccncc1.[Zn+2]
  outcome: inactive

## O=c1[nH]nc2ccccc2c1Cl
  EC50: > 39.8 µM
  IC50: 6.76 µM

## Cc1cnc2c(ccc3c(C)c(C)cnc32)c1C.Cc1cnc2c(ccc3c(C)c(C)cnc32)c1C.O=C1OC(C(O)C[O-])C(O)=C1O.[Cu+]
  EC50: > 25.1 µM
  IC50: 0.912 µM

## COC(CC1(OC)OC(=O)C=C1N)OC (configuration not stated)
  outcome: inactive

## CC(=O)COC(=O)CC(C)=O
  outcome: inactive

## COC(=O)c1cc(C)ccc1C1CN=NC12Cc1cccc(C)c1C2=O (configuration not stated)
  EC50: > 200 µM
  IC50: 26.9 µM

## COC(=O)C(N)C(C)c1c[nH]c2ccccc12 (configuration not stated)
  EC50: > 200 µM
  IC50: > 200 µM

## CN(C)C(=O)COc1ccc(Cl)cc1Cl
  EC50: > 200 µM
  IC50: > 200 µM

## COc1cc(C2c3[nH]c4ccc(F)cc4c3C[C@H]3COC(=O)N23)cc(OC)c1O (some centres not stated)
  EC50: > 200 µM
  IC50: 0.575 µM

## CC1Oc2c(c(O)cc3oc(=O)cc(-c4ccccc4)c23)C(=O)C1C (configuration not stated)
  outcome: inactive

## Cc1ccc2c(c1)C(=O)C1(C2)Cc2c(C)cccc2C1=O (configuration not stated)
  EC50: > 200 µM
  IC50: > 200 µM

## Cc1ccc(S(=O)(=O)Nn2c(S)c(C#N)c(-c3ccc(Cl)cc3)c(C#N)c2=O)cc1
  EC50: > 200 µM
  IC50: 12 µM

## Cc1ccc(C)c(C2=C/C(=C/c3ccc(N(CCC#N)CCC#N)cc3)C(=O)O2)c1
  EC50: > 9.55 µM
  IC50: > 9.55 µM

## O=C1c2ccccc2Sc2ccccc2N1C(=O)C1CC1
  EC50: 39.8 µM
  IC50: 55 µM

## COC(=O)C1CCC(=O)N1CN(C(C)=O)c1ccccc1Cl (configuration not stated)
  EC50: > 200 µM
  IC50: > 200 µM

## O=c1ccc(-c2ccc(-n3ccnc3)cc2)nn1CCO
  EC50: > 200 µM
  IC50: > 200 µM

## COc1cccc(/C=N/[N-]C(=O)c2ccncc2)c1[O-].[OH3+].[Zn+2]
  EC50: > 2.95 µM
  IC50: > 2.95 µM

## N#Cc1c(-c2ccccc2)cc(-c2ccccc2)n(C2OCC(O)C(O)C2O)c1=S (configuration not stated)
  EC50: > 200 µM
  IC50: 21.4 µM

## CCOP(=O)(OCC)/C(C#N)=C/c1ccc2c(c1)OCO2
  EC50: > 427 µM
  IC50: > 427 µM

## O=[N+]([O-])c1ccc(N=Nc2ccc3c(c2)-c2ccccc2C3=P(c2ccccc2)(c2ccccc2)c2ccccc2)cc1
  EC50: > 200 µM
  IC50: 33.1 µM

## CCCC1(CCC)c2cc(/C=N\O)ccc2-c2ccc(-c3ccc(C(C)(C)C)cc3)cc21
  EC50: > 200 µM
  IC50: 37.2 µM

## Nc1c(C(=O)N/N=C/c2ccc(Cl)cc2)sc(=S)n1-c1ccccc1
  EC50: > 3.72 µM
  IC50: > 3.72 µM

## CC1(C)CC2(CC(C)(C)c3cc(O)c(O)cc32)c2cc(O)c(O)cc21
  EC50: > 275 µM
  IC50: 14.1 µM

## Cc1nc2nc[nH]n2c1N=Nc1ccccc1
  EC50: > 200 µM
  IC50: > 200 µM

## COc1ccc(-c2c(C3=NCCN3)nnn2-c2ccc(Cl)cc2)cc1
  EC50: > 126 µM
  IC50: 91.2 µM

## N#C/C(=C\c1ccccc1F)C(=O)c1ccccc1
  EC50: > 75.9 µM
  IC50: > 75.9 µM

## CCOC(=O)c1c(N2CCCC2)ncn(Cc2ccccc2)c1=S
  EC50: > 200 µM
  IC50: > 200 µM

## O=Nc1cc(S(=O)(=O)O)c2cccnc2c1O
  EC50: > 200 µM
  IC50: 52.5 µM

## O=C(O)C1C(C(=O)O)C2C=CC1C21CCCC1 (configuration not stated)
  EC50: > 380 µM
  IC50: > 380 µM

## Nc1c(S(=O)(=O)O)cc2cc(S(=O)(=O)O)ccc2c1N=Nc1ccc(CCc2ccc(N=Nc3c(N)c(S(=O)(=O)O)cc4cc(S(=O)(=O)O)ccc34)cc2S(=O)(=O)O)c(S(=O)(=O)O)c1
  EC50: 7.59 µM
  IC50: 60.3 µM
